Measured values: patent publication USRE40086E1, “Method for treating bacterial infection with novel 7-substituted-9-substituted amino 6-demethyl-6-deoxytetracyclines” (Wyeth Holdings Corporation, priority 1991, dated 2008)

Key:
E. faecalis 12201 = test: MIC, agar dilution; type: cell-based; conditions: Enterococcus 12201; Table IA; unit assumed
[1] = tested on: S. aureus UBMS 88-4 (Sensitive); test: MIC, agar dilution; type: cell-based; conditions: S. aureus UBMS 88-4; Table IA; unit assumed
[2] = tested on: S. haemolyticus AVAH 88-3; test: MIC, agar dilution; type: cell-based; conditions: S. hemolyticus AVHAH 88-3; Table IA; unit assumed
S. aureus NEMC 8769/89-4 = test: MIC, agar dilution (Table IA); type: cell-based; conditions: unit assumed
[3] = tested on: S. aureus IVES 1983 (meth. resistant); test: MIC, agar dilution; type: cell-based; conditions: S. aureus IVES 1983; Table IA; unit assumed
[4] = tested on: S. aureus UBMS 90-3 (Sensitive); test: MIC, agar dilution; type: cell-based; conditions: S. aureus UBMS 90-3; Table IA; unit assumed
[5] = tested on: S. aureus UBMS 88-7 (tetK); test: MIC, agar dilution; type: cell-based; conditions: S. aureus UBMS 88-7 TetK; Table IA; unit assumed
S. aureus ROSE (MP) = test: MIC, agar dilution (Table IA); type: cell-based; conditions: unit assumed
E. coli UBMS 90-5 = test: MIC, agar dilution (Table IA); type: cell-based; conditions: unit assumed
[6] = tested on: Ps. acruginosa ATCC 27853; test: MIC, agar dilution (Table IA); type: cell-based; conditions: unit assumed
[7] = tested on: S. aureus IVES 2943 (meth. resistant); test: MIC, agar dilution; type: cell-based; conditions: S. aureus IVES 2943; Table IA; unit assumed
E. coli J3272 TetD = test: MIC, agar dilution (Table IA); type: cell-based; conditions: unit assumed
E. faecalis ATCC 29212 = test: MIC, agar dilution; type: cell-based; conditions: E. faecalis ATCC 29212; Table IA; unit assumed
E. coli MC4100 TetB = test: MIC, agar dilution (Table IA); type: cell-based; conditions: unit assumed
E. coli UBMS 90-4 (tetM) = test: MIC, agar dilution; type: cell-based; conditions: E. coli UBMS 90-4 TetM; Table IA; unit assumed
E. coli J3272 TetC = test: MIC, agar dilution (Table IA); type: cell-based; conditions: unit assumed
[8] = tested on: S. aureus UBMS 90-1 (tetM); test: MIC, agar dilution; type: cell-based; conditions: S. aureus UBMS 90-1 TetM; Table IA; unit assumed
[9] = tested on: S. aureus UBMS 88-5 (tetM); test: MIC, agar dilution; type: cell-based; conditions: S. aureus UBMS 88-5 TetM; Table IA; unit assumed
[10] = tested on: E. coli UBMS 89-2 (Sensitive); test: MIC, agar dilution; type: cell-based; conditions: E. coli UBMS 89-2 Tet Sens.; Table IA; unit assumed
E. coli PRP1 TetA = test: MIC, agar dilution (Table IA); type: cell-based; conditions: unit assumed
E. coli #311 (MP) = test: MIC, agar dilution (Table IA); type: cell-based; conditions: unit assumed
E. coli BAJ9003 = test: MIC, agar dilution (Table IA); type: cell-based; conditions: unit assumed
[11] = tested on: X. maltophilia NEMC 87210; test: MIC, agar dilution (Table IA); type: cell-based; conditions: unit assumed
[12] = tested on: S. aureus UBMS 90-2 (tetM); test: MIC, agar dilution; type: cell-based; conditions: S. aureus UBMS 90-2 TetM; Table IA; unit assumed
E. coli UBMS 88-1 (tetB) = test: MIC, agar dilution; type: cell-based; conditions: E. coli UBMS 88-1 TetB; Table IA; unit assumed
E. coli ATCC 25922 = test: MIC, agar dilution; type: cell-based; conditions: E. coli ATCC 25922; Table IA; unit assumed
[13] = tested on: S. aureus ATCC 29213 (Sensitive); test: MIC, agar dilution; type: cell-based; conditions: S. aureus ATCC 29213; Table IA; unit assumed
E. coli UBMS 89-1 (tetM) = test: MIC, agar dilution; type: cell-based; conditions: E. coli UBMS 89-1 TetM; Table IA; unit assumed
[14] = tested on: S. aureus Smith (Sensitive); test: MIC, agar dilution; type: cell-based; conditions: S. aureus SMITH (MP); Table IA; unit assumed
S. mariescens FDOR 8733 = test: MIC, agar dilution (Table IA); type: cell-based; conditions: unit assumed
E. coli MC4100 Tet sens. = test: MIC, agar dilution (Table IA); type: cell-based; conditions: unit assumed
E. coli J2175 = test: MIC, agar dilution (Table IA); type: cell-based; conditions: unit assumed
E. coli J3272 Tet sens. = test: MIC, agar dilution (Table IA); type: cell-based; conditions: unit assumed
[15] = tested on: Wild Type S30 extract, E. coli strain MRE600 (tetracycline sensitive); test: E. coli in vitro transcription and protein translation, 35S-methionine incorporation (Table VIII)
S. aureus SMITH (sens) = test: In vivo antibacterial evaluation, acute lethal infection in mice; conditions: Oral
Source text: In Vivo Antibacterial Evaluation (Table VII)

[16] = tested on: TetM S30 extract, derivative of E. coli MRE600 containing the tetM determinant; test: E. coli in vitro transcription and protein translation, 35S-methionine incorporation (Table VIII)

Compound	Antibacterial activity (MIC) (E. faecalis 12201) [µg/mL]	Antibacterial activity (MIC) [1] [µg/mL]	Antibacterial activity (MIC) [2] [µg/mL]	Antibacterial activity (MIC) (S. aureus NEMC 8769/89-4) [µg/mL]	Antibacterial activity (MIC) [3] [µg/mL]	Antibacterial activity (MIC) [4] [µg/mL]	Antibacterial activity (MIC) [5] [µg/mL]	Antibacterial activity (MIC) (S. aureus ROSE (MP)) [µg/mL]	Antibacterial activity (MIC) (E. coli UBMS 90-5) [µg/mL]	Antibacterial activity (MIC) [6] [µg/mL]	Antibacterial activity (MIC) [7] [µg/mL]	Antibacterial activity (MIC) (E. coli J3272 TetD) [µg/mL]	Antibacterial activity (MIC) (E. faecalis ATCC 29212) [µg/mL]	Antibacterial activity (MIC) (E. coli MC4100 TetB) [µg/mL]	Antibacterial activity (MIC) (E. coli UBMS 90-4 (tetM)) [µg/mL]	Antibacterial activity (MIC) (E. coli J3272 TetC) [µg/mL]	Antibacterial activity (MIC) [8] [µg/mL]	Antibacterial activity (MIC) [9] [µg/mL]	Antibacterial activity (MIC) [10] [µg/mL]	Antibacterial activity (MIC) (E. coli PRP1 TetA) [µg/mL]	other results
CN(C)CCCC(=O)Nc1cc(N(C)C)c2c(c1O)C(=O)C1=C(O)[C@]3(O)C(=O)C(C(N)=O)=C(O)[C@@H](N(C)C)C3CC1C2.Cl.Cl (stereo partly drawn) [ZZ, [4S-(4alpha,12aalpha)]-4,7-Bis(dimethylamino)-9-[[4-(dimethylamino)-1-oxobutyl]amino]-1,4,4a,5,5a,6,11,12a-octahydro-3,10,12,12a-tetrahydroxy-1,11-dioxo-2-naphthacenecarboxamide dihydrochloride]	8	2	8	1	> 32	2	16	> 32	16	> 32	> 32	4	4	> 32	16	32	8	8	16	> 32	Antibacterial activity (MIC) (E. coli #311 (MP)): 16 µg/mL; Antibacterial activity (MIC) (E. coli BAJ9003): 1 µg/mL; Antibacterial activity (MIC) [11]: 32 µg/mL; Antibacterial activity (MIC) [12]: 4 µg/mL; Antibacterial activity (MIC) (E. coli UBMS 88-1 (tetB)): > 32 µg/mL; Antibacterial activity (MIC) (E. coli ATCC 25922): 8 µg/mL; Antibacterial activity (MIC) [13]: 2 µg/mL; Antibacterial activity (MIC) (E. coli UBMS 89-1 (tetM)): 32 µg/mL; Antibacterial activity (MIC) [14]: 2 µg/mL; Antibacterial activity (MIC) (S. mariescens FDOR 8733): > 32 µg/mL; Antibacterial activity (MIC) (E. coli MC4100 Tet sens.): 2 µg/mL; Antibacterial activity (MIC) (E. coli J2175): 16 µg/mL
CN(C)CC(=O)Nc1cc(N(C)C)c2c(c1O)C(=O)C1=C(O)[C@]3(O)C(=O)C(C(=O)NCN4CCOCC4)=C(O)[C@@H](N(C)C)C3CC1C2 (stereo partly drawn) [GGG]	0.12	0.12	0.5	0.25	2	0.12	1	2	0.25	8	2	0.12	0.06	0.25	0.25	1	0.25	0.12	0.25	1	Antibacterial activity (MIC) (E. coli #311 (MP)): 0.25 µg/mL; Antibacterial activity (MIC) (E. coli BAJ9003): 0.03 µg/mL; Antibacterial activity (MIC) [11]: 0.5 µg/mL; Antibacterial activity (MIC) [12]: 0.12 µg/mL; Antibacterial activity (MIC) (E. coli UBMS 88-1 (tetB)): 0.25 µg/mL; Antibacterial activity (MIC) (E. coli ATCC 25922): 0.12 µg/mL; Antibacterial activity (MIC) [13]: 0.25 µg/mL; Antibacterial activity (MIC) (E. coli UBMS 89-1 (tetM)): 0.12 µg/mL; Antibacterial activity (MIC) [14]: 0.12 µg/mL; Antibacterial activity (MIC) (S. mariescens FDOR 8733): 4 µg/mL; Antibacterial activity (MIC) (E. coli MC4100 Tet sens.): 0.06 µg/mL; Antibacterial activity (MIC) (E. coli J2175): 0.25 µg/mL
CCN(CC)CC(=O)Nc1cc(N(C)C)c2c(c1O)C(=O)C1=C(O)[C@]3(O)C(=O)C(C(N)=O)=C(O)[C@@H](N(C)C)C3CC1C2.Cl.Cl (stereo partly drawn) [RR, [4S-(4alpha,12aalpha))-9-([(Diethylamino)acetyl)amino]-4,7-Bis(dimethylamino)-1,4,4a,5,5a,6,11,12a-octahydro-3,10,12,12a-tetrahydroxy-1,11-dioxo-2-naphthacenecarboxamide dihydrochloride]	0.12	0.25	0.5	0.06	0.25	0.25	0.5	1	1	32	1	0.25	0.12	1	0.5	1	0.25	0.25	1	2	Antibacterial activity (MIC) (E. coli J3272 Tet sens.): 1 µg/mL; % INHIBITION Wild Type S30 ([15]; 0.06 mg/ml): 93%; % INHIBITION Wild Type S30 ([15]; 0.2 mg/ml): 97%; % INHIBITION Wild Type S30 ([15]; 1.0 mg/ml): 99%; ED50 (S. aureus SMITH (sens)): 8 to 16 mg/kg; Antibacterial activity (MIC) (E. coli #311 (MP)): 0.5 µg/mL; Antibacterial activity (MIC) (E. coli BAJ9003): 0.06 µg/mL; Antibacterial activity (MIC) [11]: 0.25 µg/mL; Antibacterial activity (MIC) [12]: 0.25 µg/mL; Antibacterial activity (MIC) (E. coli UBMS 88-1 (tetB)): 1 µg/mL; % INHIBITION TetM S30 ([16]; 0.06 mg/ml): 90%; % INHIBITION TetM S30 ([16]; 0.2 mg/ml): 97%; % INHIBITION TetM S30 ([16]; 1.0 mg/ml): 99%; Antibacterial activity (MIC) (E. coli ATCC 25922): 0.5 µg/mL; Antibacterial activity (MIC) [13]: 0.12 µg/mL; Antibacterial activity (MIC) (E. coli UBMS 89-1 (tetM)): 0.25 µg/mL; Antibacterial activity (MIC) [14]: 0.25 µg/mL; Antibacterial activity (MIC) (S. mariescens FDOR 8733): 4 µg/mL; Antibacterial activity (MIC) (E. coli J2175): 1 µg/mL
CN(C)CC(=O)Nc1cc(N(C)C)c2c(c1O)C(=O)C1=C(O)[C@]3(O)C(=O)C(C(=O)NCN4CCCCC4)=C(O)[C@@H](N(C)C)C3CC1C2 (stereo partly drawn) [HHH, [4S-(4alpha,12aalpha)]-4,7-Bis(dimethylamino)-9-([(dimethylamino)acetyl]amino]-1,4,4a,5,5a,6,11,12a-octahydro-3,10,12,12a-tetrahydroxy-1,11-dioxo-N-(1-piperadinylmethyl)-2-naphthacenecarboxamide]	0.12	0.25	0.5	0.25	2	0.12	0.5	2	0.25	8	2	0.12	0.06	0.25	0.25	0.5	0.25	0.25	0.25	2	Antibacterial activity (MIC) (E. coli #311 (MP)): 0.25 µg/mL; Antibacterial activity (MIC) (E. coli BAJ9003): 0.03 µg/mL; Antibacterial activity (MIC) [11]: 0.5 µg/mL; Antibacterial activity (MIC) [12]: 0.12 µg/mL; Antibacterial activity (MIC) (E. coli UBMS 88-1 (tetB)): 0.25 µg/mL; Antibacterial activity (MIC) (E. coli ATCC 25922): 0.25 µg/mL; Antibacterial activity (MIC) [13]: 0.25 µg/mL; Antibacterial activity (MIC) (E. coli UBMS 89-1 (tetM)): 0.25 µg/mL; Antibacterial activity (MIC) [14]: 0.12 µg/mL; Antibacterial activity (MIC) (S. mariescens FDOR 8733): 4 µg/mL; Antibacterial activity (MIC) (E. coli MC4100 Tet sens.): 0.12 µg/mL; Antibacterial activity (MIC) (E. coli J2175): 0.25 µg/mL
